The results in this text go back to ChEMBL document CHEMBL5360574, “Optimization of potent, selective and orally bioavailable biphenyl scaffold as FABP4 inhibitors for anti-inflammation” (Eur J Med Chem, 2023).

Data set [1] deals with Fatty acid-binding protein, adipocyte (Homo sapiens, UniProt P15090). Briefly: Displacement of 1,8-ANS from FABP4 (unknown origin) assessed as inhibition constant by fluorescence based analysis.
For data set [2], the target named is Fatty acid-binding protein, heart (Homo sapiens, UniProt P05413). Briefly: Displacement of 1,8-ANS from FABP3 (unknown origin) assessed as inhibition constant by fluorescence based analysis.
Another data set relates to 3T3-L1. The data set is described as follows: Cytotoxicity against mouse 3T3-L1 cells assessed as reduction in cell growth at 100 uM measured after 24 hrs by CCK-8 assay. Type of data set: toxicity, cell-based. To be noted: 3t3-l1, 24 h.
The test system of data set [3] is THP-1. The data set is described as follows: Cytotoxicity against human THP-1 cells assessed as reduction in cell growth at 80 uM measured after 24 hrs by CCK-8 assay. Type of data set: toxicity, cell-based. The note with it: thp-1, 24 h.
The subject of data set [4] is THP-1. Briefly: Antiinflammatory activity in LPS-induced human THP-1 cells assessed as reduction in MCP-1 mRNA expression at 25 uM incubated for 24 hrs by RT-PCR analysis. The data set is classed as functional, cell-based.
Data set [5] in a line: Metabolic stability in mouse liver microsomes assessed as half life at 0.1 uM measured upto 60 mins in presence of NADPH by LC-MS/MS analysis. The data set is classed as ADME, Microsome. For orientation: Liver microsomes are vesicles of endoplasmic reticulum, rich in cytochrome P450 enzymes.
Data set [6] is described as follows: Metabolic stability in mouse liver microsomes assessed as intrinsic clearance at 0.1 uM measured upto 60 mins in presence of NADPH by LC-MS/MS analysis. The data set is classed as ADME, Microsome. The note with it: 1 h.
Data set [7] can be described thus: Metabolic stability in mouse liver microsomes assessed as intrinsic clearance at 0.1 uM measured per gram protein measured upto 60 mins in presence of NADPH by LC-MS/MS analysis. To be noted: 1 h. The data set is classed as ADME, Microsome.
For data set [8], the system named is THP-1. Briefly: Antiinflammatory activity in LPS-induced human THP-1 cells assessed as inhibition of MCP-1 secretion at 1 uM pre-incubated with compound for 18 hrs followed by LPS induction measured after 6 hrs by ELISA method. Type of data set: functional, cell-based. To be noted: time 24.0 hrs.
Data set [9] can be described thus: Half life in ICR mouse at 25 mg/kg, po measured upto 24 hrs by LC-MS/MS analysis. Type of data set: ADME, organism-based. The note with it: in vivo.
Data set [10] can be described thus: Tmax in ICR mouse at 25 mg/kg, po measured upto 24 hrs by LC-MS/MS analysis. Type of data set: ADME, organism-based. The note with it: in vivo.
Data set [11] in a line: Cmax in ICR mouse at 25 mg/kg, po measured upto 24 hrs by LC-MS/MS analysis. The data set is classed as ADME, organism-based. More on the design: dose 25 mg/kg, time < 24 hrs, route po. The note with it: in vivo.
Data set [12] in a line: AUC(0 to 24 hrs) in ICR mouse at 25 mg/kg, po measured upto 24 hrs by LC-MS/MS analysis. Type of data set: ADME, organism-based. Details: time < 24 hrs, dose 25 mg/kg, route po. The note with it: in vivo.
A short description of data set [13]: Clearance in ICR mouse at 3 mg/kg, iv measured upto 24 hrs by LC-MS/MS analysis. Type of data set: ADME, organism-based. The note with it: in vivo.
Data set [14] in a line: Volume of distribution at steady state in ICR mouse at 3 mg/kg, iv measured upto 24 hrs by LC-MS/MS analysis. To be noted: in vivo, read-out: Vdss. Type of data set: ADME, organism-based.
A short description of data set [15]: MRT in ICR mouse at 25 mg/kg, po measured upto 24 hrs by LC-MS/MS analysis. Type of data set: ADME, organism-based. To be noted: in vivo.
The nature of data set [16]: Oral bioavailability in ICR mouse at 25 mg/kg measured upto 24 hrs by LC-MS/MS analysis. The note with it: in vivo. The data set is classed as ADME, organism-based.
Data set [17] is described as follows: Half life in ICR mouse at 3 mg/kg, iv measured upto 24 hrs by LC-MS/MS analysis. Type of data set: ADME, organism-based. To be noted: in vivo.
Data set [18] is described as follows: AUC(0 to 24 hrs) in ICR mouse at 3 mg/kg, iv measured upto 24 hrs by LC-MS/MS analysis. More on the design: dose 3 mg/kg, time < 24 hrs, route iv. The note with it: in vivo. Type of data set: ADME, organism-based.
The nature of data set [19]: MRT in ICR mouse at 3 mg/kg, iv measured upto 24 hrs by LC-MS/MS analysis. The data set is classed as ADME, organism-based. The note with it: in vivo.
Data set [20] has as its system Mus musculus. The data set is described as follows: Antiinflammatory activity in LPS-induced acute inflammation C57BL/6J mouse model assessed as reduction in MCP-1 level in serum at 50 mg/kg, po qd via gavage administered for 4 days followed by LPS induction. The data set is classed as functional, organism-based. To be noted: time 4.0 day.
The nature of data set [21]: Toxicity in LPS-induced acute inflammation C57BL/6J mouse model assessed as change in body weight at 50 mg/kg, po qd via gavage administered for 4 days followed by LPS induction. Type of data set: organism-based. To be noted: in vivo, 96 h, time 4 day.
Data set [22] deals with Mus musculus. Briefly: Antiinflammatory activity in LPS-induced acute inflammation C57BL/6J mouse model assessed as reduction in ALT level in serum at 50 mg/kg, po qd via gavage administered for 4 days followed by LPS induction. Type of data set: functional, organism-based. To be noted: time 4.0 day.
The test system of data set [23] is Mus musculus. The data set is described as follows: Antiinflammatory activity in LPS-induced acute inflammation C57BL/6J mouse model assessed as reduction in AST level in serum at 50 mg/kg, po qd via gavage administered for 4 days followed by LPS induction. The data set is classed as functional, organism-based. The note with it: time 4.0 day.
The nature of data set [24]: Toxicity in LPS-induced acute inflammation C57BL/6J mouse model assessed as effect on liver damage at 50 mg/kg, po qd via gavage administered for 4 days followed by LPS induction by hematoxylin and eosin staining based microscopic analysis. Type of data set: organism-based. To be noted: in vivo, 96 h, time 4 day.
The nature of data set [25]: Toxicity in LPS-induced acute inflammation C57BL/6J mouse model assessed as effect on spleen damage at 50 mg/kg, po qd via gavage administered for 4 days followed by LPS induction by hematoxylin and eosin staining based microscopic analysis. Type of data set: organism-based. To be noted: in vivo, 96 h, time 4 day.

pKi: −log10 of the molar value. Active and inactive are the calls of the source. No cut-off for these calls is given here.

Chain of Fatty acid-binding protein, heart (P05413 whole entry): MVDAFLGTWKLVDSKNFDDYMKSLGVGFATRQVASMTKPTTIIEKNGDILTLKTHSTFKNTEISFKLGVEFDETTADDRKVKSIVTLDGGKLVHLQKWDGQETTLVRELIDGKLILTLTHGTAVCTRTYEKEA
Chain of Fatty acid-binding protein, adipocyte (P15090 whole entry): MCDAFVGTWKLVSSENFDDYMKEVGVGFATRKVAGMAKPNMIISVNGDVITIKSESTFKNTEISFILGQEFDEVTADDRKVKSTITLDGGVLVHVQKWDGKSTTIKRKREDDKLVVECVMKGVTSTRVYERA

Take `O=C(O)c1cc(-c2cccc(Cl)c2-c2ccc3occc3c2)ccc1C(F)(F)F`: the pKi – broadly, the Ki on a negative log10 scale, so that one unit is a factor of ten – in data set [1] is 6.14.
Still for that read-out and setting: then `O=C(O)c1cc(-c2cccc(Cl)c2-c2ccc3c(c2)CCO3)ccc1O`, with 6.55; and `O=C(O)C1CCc2ccc(-c3cccc(Cl)c3-c3ccc4c(c3)OCO4)cc21` (centres undefined), with 6.10; and `O=C(O)c1cc(-c2cccc(Cl)c2-c2ccc3c(c2)CCO3)ccc1[N+](=O)[O-]`, with 6.52.
The same measure, in the same setting: then `O=C(O)C1CCc2ccc(-c3cccc(Cl)c3OC3CCC3)cc21` (centres undefined), with 6.10; and `O=C(O)C1CCc2ccc(-c3cccc(Cl)c3-c3ccc4ocnc4c3)cc21` (centres undefined), with 6.13.
Turning to `O=C(O)C1CCc2ccc(-c3cccc(Cl)c3-c3ccc4c(c3)CCO4)cc21` (centres undefined), the pKi was 6.24 in [1] and 4.74 in data set [2]. In addition, the Activity entry in the data set on 3T3-L1 and in the data set with THP-1 [3] was “Non-Toxic” each time. Further, the result with THP-1 [4] was Active. In addition, the half-life – broadly, how long it takes for the measured level to halve – at 0.1 µM in data set [5] was found to be 0.883 h. Moreover, the results for the CLH in [6] and in [7] were 2.66 mL/min and 39.4 mL/min/g, respectively.
As for `O=C(O)Cc1cccc(-c2cccc(Cl)c2-c2ccc3c(c2)CCO3)c1`, in data set [1], the pKi is 6.46.
In the case of `O=C(O)c1ccccc1Nc1cccc(Cl)c1-c1ccc2c(c1)CCO2`, the pKi in data set [2] was 6.04. Further, the Activity entry in the data set on 3T3-L1 and with THP-1 [3] was “Non-Toxic” each time.
On to `O=C(O)CCc1cccc(-c2cccc(Cl)c2-c2ccc3c(c2)CCO3)c1`, for which, in data set [1], the pKi is 5.74.
On the same count and under the same terms, then `O=C(O)c1cc(-c2cccc(Cl)c2-c2ccc3nonc3c2)ccc1C(F)(F)F`, with 6.04; and `Nc1ccc(-c2cccc(Cl)c2-c2ccc3c(c2)CCO3)cc1C(=O)O`, with 6.37.
The same measure, in the same setting: then `O=C(O)C1CCc2ccc(-c3cccc(Cl)c3OCC3CCC3)cc21` (centres undefined), with 6.12.
In the case of `O=C(O)C1CCc2ccc(-c3cccc(Cl)c3-c3ccc4[nH]ncc4c3)cc21` (centres undefined), in data set [1], the pKi is 6.12.
Same read-out and setting: the result for `O=C(O)c1cc(O)cc(-c2cccc(Cl)c2-c2ccc3c(c2)CCO3)c1` reads 6.26; that for `CC(C(=O)O)c1cccc(-c2cccc(Cl)c2-c2ccc3c(c2)CCO3)c1` (centres undefined), 5.83; that for `CS(=O)(=O)Nc1ccc(-c2cccc(Cl)c2-c2ccc3c(c2)CCO3)cc1C(=O)O`, 6.48.
The same measure, in the same setting: then `O=C(O)C1CCc2ccc(-c3cccc(Cl)c3OCC3CCCCC3)cc21` (centres undefined), with 5.74; and `O=C(O)C1CCc2ccc(-c3cccc(Cl)c3-c3ccc4nonc4c3)cc21` (centres undefined), with 5.63.
For the molecule `O=C(O)C1CCc2ccc(-c3cccc(Cl)c3OCc3ccccc3)cc21` (centres undefined), the pKi in data set [1] is 5.88.
Regarding `Cc1ccc(-c2cccc(Cl)c2-c2ccc3c(c2)CCO3)cc1C(=O)O`, the pKi in [1] was 6.49.
Regarding `O=C(O)c1cc(-c2cccc(Cl)c2-c2ccc3c(c2)OCO3)ccc1C(F)(F)F`, in data set [1], the pKi was 5.77.
Take `O=C(O)c1cccc(-c2cccc(Cl)c2-c2ccc3c(c2)CCO3)c1`: the pKi in [1] was 6.32.
The same measure, in the same setting: then `O=C(O)C1CCc2ccc(-c3cccc(Cl)c3-c3ccc4occc4c3)cc21` (centres undefined), with 6.16.
Take `O=C(O)c1cc(-c2cccc(Cl)c2-c2ccc3c(c2)CCO3)ccc1C(F)(F)F`: the pKi in data set [1] was 6.29; in [2], 4.48. In addition, the Activity result (in the data set on 3T3-L1; in the data set with THP-1 [3]; in data set [21]; in data set [24]; in data set [25]) was “Non-Toxic” in each case. For the same molecule, the outcome with THP-1 [4], in the data set on THP-1 [8], in the data set with Mus musculus [20], in the data set with Mus musculus [22] and with Mus musculus [23] was Active. In data set [5], the half-life at 0.1 µM amounted to 8.9 h. Also, the results for the CLH in data set [6] and in [7] were 0.266 mL/min and 3.94 mL/min/g, respectively. The figures for the half-life in data set [9] and in data set [17] were 3.43 h and 5.64 h, respectively. For the same molecule, the Tmax (commonly the time at which the peak concentration occurs) in data set [10] came to 0.25 h. In data set [11], the concentration peaked (Cmax) at 15500 ng/mL. In addition, the AUC(0-t) – broadly, the area under the concentration-time curve up to a stated or last time point – at 24 h in [12] was 26800 ng·h/mL; in data set [18], 3600 ng·h/mL. The clearance (in general, the rate of elimination divided by the concentration) in [13] came out at 12.5 mL/min/kg. In data set [14], the Vd is 3.32 L/kg. Besides, the MRT (usually the average time that molecules of a dose stay in the body) in data set [15] turned out to be 5.3 h; in [19], 4.04 h. Also, in data set [16], the bioavailability – broadly, the share of a dose that reaches the circulation, judged against a reference dose that is usually intravenous – was 89.4%.
Take `O=C(O)C1CCc2ccc(-c3cccc(Cl)c3OCC3CCCC3)cc21` (centres undefined): the pKi in [1] was 5.76.
`CCc1c(-c2ccccc2)c(-c2ccccc2)nn1-c1ccccc1-c1cccc(OCC(=O)O)c1`: the Activity result (in the data set with 3T3-L1; in the data set with THP-1 [3]; in data set [21]; in [24]; in [25]) was “Non-Toxic” throughout. For the same molecule, the result in the data set on THP-1 [4], in the data set on Mus musculus [20], with Mus musculus [22] and in the data set with Mus musculus [23] was Active.
